Data reported in patent US20230097157A1, “Bicyclic Pyridin-2-one and pyrimidin-4-one Derivatives Useful As a Factor XIa Inhibitors” (Janssen Pharmaceutica NV, priority 2021, published 2023).
Read-outs that look alike come from different tables or passages of the source.

How the values were obtained:
human plasma kallikrein = human plasma kallikrein (Homo sapiens, UniProt P03952); assay: Kallikrein inhibition assay (FLINT) utilizing a quenched AMC peptide substrate Z-Gly-Pro-Arg-AMC; format: biochemical; details: kinetic (KIN) reads, read-out: Kallikrein KIN Inh IC50
Outline: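 Human plasma kallikrein (2 nM final) pre-incubated 30 min with compound (11-point 3-fold series, top 1 μM, 2% DMSO), then 50 μM Z-Gly-Pro-Arg-AMC added. Buffer 50 mM Tris pH 7.5, 100 mM NaCl, 5 mM CaCl2, BSA, CHAPS. AMC fluorescence (340/440 nm) read kinetically over 30 min at room temperature, IC50 by 4-parameter logistic fit.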

Factor XIa = Factor XIa (Homo sapiens, UniProt P03951); assay: Factor XIa inhibition assay (FLINT) utilizing a fluorophore-quencher pair peptide substrate 5Fam-[…]-K5Tamra; format: biochemical; details: kinetic (KIN) reads, read-out: FXIa KIN Inh IC50
Outline: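 FXIa was preincubated with compound for 30 min at room temperature in Tris pH 7.5 buffer containing CaCl2, BSA and CHAPS, then reacted with 15 μM quenched 5Fam/Tamra peptide substrate. Fluorescence (485/520 nm) was read kinetically every 5 min for 30 min.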

Chain of human plasma kallikrein (P03952 391-638 limits assumed): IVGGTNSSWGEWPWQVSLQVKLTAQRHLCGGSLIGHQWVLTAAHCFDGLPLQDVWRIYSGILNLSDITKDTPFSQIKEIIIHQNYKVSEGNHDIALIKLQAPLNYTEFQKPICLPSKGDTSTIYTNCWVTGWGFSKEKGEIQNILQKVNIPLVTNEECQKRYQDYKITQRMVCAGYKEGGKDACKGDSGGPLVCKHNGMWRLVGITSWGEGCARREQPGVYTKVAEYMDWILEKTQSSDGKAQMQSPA
Chain of human plasma kallikrein (P03952 20-390 partner limits assumed): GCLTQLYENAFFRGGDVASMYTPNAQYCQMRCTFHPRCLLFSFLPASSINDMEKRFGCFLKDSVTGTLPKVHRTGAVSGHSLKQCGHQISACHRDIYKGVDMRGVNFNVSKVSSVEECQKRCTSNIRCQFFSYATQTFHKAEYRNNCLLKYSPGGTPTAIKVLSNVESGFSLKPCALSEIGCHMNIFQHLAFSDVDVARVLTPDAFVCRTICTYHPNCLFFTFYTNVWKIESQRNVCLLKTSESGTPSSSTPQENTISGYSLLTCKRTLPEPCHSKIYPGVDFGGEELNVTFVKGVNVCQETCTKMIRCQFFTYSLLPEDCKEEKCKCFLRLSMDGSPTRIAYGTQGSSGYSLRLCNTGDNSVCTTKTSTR
Chain of Factor XIa (P03951 388-625 limits assumed): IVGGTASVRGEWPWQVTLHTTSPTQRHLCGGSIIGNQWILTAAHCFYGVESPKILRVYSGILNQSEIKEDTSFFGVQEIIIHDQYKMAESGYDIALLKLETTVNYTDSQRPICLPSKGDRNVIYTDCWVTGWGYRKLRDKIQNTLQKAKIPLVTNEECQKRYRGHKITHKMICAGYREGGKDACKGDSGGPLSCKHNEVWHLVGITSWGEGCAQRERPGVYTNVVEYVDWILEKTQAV
Chain of Factor XIa (P03951 19-387 partner limits assumed): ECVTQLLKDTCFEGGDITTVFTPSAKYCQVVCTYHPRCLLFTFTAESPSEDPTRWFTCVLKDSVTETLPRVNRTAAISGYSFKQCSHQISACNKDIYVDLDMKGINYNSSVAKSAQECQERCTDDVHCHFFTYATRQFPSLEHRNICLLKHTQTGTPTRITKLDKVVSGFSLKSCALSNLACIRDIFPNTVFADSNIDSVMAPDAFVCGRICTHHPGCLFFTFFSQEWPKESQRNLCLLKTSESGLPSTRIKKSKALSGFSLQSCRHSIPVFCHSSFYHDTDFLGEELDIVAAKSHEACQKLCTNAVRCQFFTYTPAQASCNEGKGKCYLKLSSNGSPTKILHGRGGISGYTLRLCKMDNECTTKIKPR

SMILES | IC50 (human plasma kallikrein; values in nM) [nM] | IC50 (Factor XIa; values in nM) [nM] | IC50 (human plasma kallikrein; unit μM) [nM] | IC50 (Factor XIa; unit μM) [nM]
Nc1ccc(-c2cnc(C3CCCc4cc(-c5c(-n6cnnn6)ccc(Cl)c5F)cc(=O)n43)[nH]2)c(F)n1 (single isomer, unassigned) [Cmpd (III), (*S)-6-(5-(6-amino-2-fluoropyridin-3-yl)-1H-imidazol-2-yl)-2-(3-chloro-2-fluoro-6-(1H-tetrazol-1-yl)phenyl)-6,7,8,9-tetrahydro-4H-quinolizin-4-one] | 100 | 1.2 | – | –
Nc1ccc(-c2cnc([C@@H]3CC4(CC4)c4cc(-c5cc(Cl)ccc5-n5cnnn5)cc(=O)n43)[nH]2)c(F)n1 (single isomer, unassigned) [Example 4] | – | > 100 | > 1000 | –
CC(O)c1nccc(-c2cnc([C@@H]3CC4(CC4)c4cc(-c5c(-n6cnnn6)ccc(Cl)c5F)cc(=O)n43)[nH]2)c1F (single isomer, unassigned) [Example 5, (3'S)-7′-(3-Chloro-2-fluoro-6-(1H-tetrazol-1-yl)phenyl)-3′-(5-(3-fluoro-2-(1-hydroxyethyl)pyridin-4-yl)-1H-imidazol-2-yl)-2′,3′-dihydro-5′H-spiro[cyclopropane-1,1′-indolizin]-5′-one] | – | > 100 | > 1000 | –
CC(O)c1nccc(-c2cnc([C@H]3CC4(CC4)c4cc(-c5c(-n6cnnn6)ccc(Cl)c5F)cc(=O)n43)[nH]2)c1F (single isomer, unassigned) [Example 6, (3′R)-7′-(3-Chloro-2-fluoro-6-(1H-tetrazol-1-yl)phenyl)-3′-(5-(3-fluoro-2-(1-hydroxyethyl)pyridin-4-yl)-1H-imidazol-2-yl)-2′,3′-dihydro-5′H-spiro[cyclopropane-1,1′-indolizin]-5′-one] | 72.8 | 17 | – | –
O=c1cc(-c2c(-n3cnnn3)ccc(Cl)c2F)cc2n1[C@@H](c1ncc(-c3ccnc(CO)c3F)[nH]1)CC21CC1 (single isomer, unassigned) [Example 8] | – | > 100 | > 1000 | –
C[C@H]1C[C@@H](c2ncc(-c3cc4c(cn3)NC(=O)CC4)[nH]2)n2c1cc(-c1c(-n3cnnn3)ccc(Cl)c1F)cc2=O (single isomer, unassigned) [Example 9, 6-(2-((1*S,3*S)-7-(3-Chloro-2-fluoro-6-(1H-tetrazol-1-yl)phenyl)-1-methyl-5-oxo-1,2,3,5-tetrahydroindolizin-3-yl)-1H-imidazol-5-yl)-3,4-dihydro-1,7-naphthyridin-2(1H)-one] | ~21.4 | 6.9 | – | –
C[C@H]1C[C@@H](c2ncc(-c3ccc(N)nc3F)[nH]2)n2c1cc(-c1cc(Cl)ccc1-n1cnnn1)cc2=O (single isomer, unassigned) [Example 36] | – | – | > 10000 | 1500
CC(C)(O)COc1nccc(-c2cnc(C3CC4(CC4)c4nc(-c5c(-n6cnnn6)ccc(Cl)c5F)cc(=O)n43)[nH]2)c1F (single isomer, unassigned) [Example 70, (R*)-2′-(3-Chloro-2-fluoro-6-(1H-tetrazol-1-yl)phenyl)-6′-(5-(3-fluoro-2-(2-hydroxy-2-methylpropoxy)pyridin-4-yl)-1H-imidazol-2-yl)-6′,7′-dihydro-4′H-spiro[cyclopropane-1,8′-pyrrolo[1,2-a]pyrimidin]-4′-one] | 42.9 | 7.3 | – | –
[2H]C([2H])([2H])OC(=O)Nc1ccc(-c2cnc(C3CC4(CC4)c4nc(-c5c(-n6cnnn6)ccc(Cl)c5F)cc(=O)n43)[nH]2)cc1 (single isomer, unassigned) [Example 71, Methyl-d3 (R*)-(4-(2-(2′-(3-Chloro-2-fluoro-6-(1H-tetrazol-1-yl)phenyl)-4′-oxo-6′,7′-dihydro-4′H-spiro[cyclopropane-1,8′-pyrrolo[1,2-a]pyrimidin]-6′-yl)-1H-imidazol-5-yl)phenyl)carbamate] | 736 | > 100 | – | –
[2H]C([2H])([2H])OC(=O)Nc1ccc(-c2cnc(C3CC4(CC4)c4nc(-c5c(-n6cnnn6)ccc(Cl)c5F)cc(=O)n43)[nH]2)cc1 (single isomer, unassigned) [Example 72, Methyl-d3 (S*)-(4-(2-(2′-(3-Chloro-2-fluoro-6-(1H-tetrazol-1-yl)phenyl)-4′-oxo-6′,7′-dihydro-4′H-spiro[cyclopropane-1,8′-pyrrolo[1,2-a]pyrimidin]-6′-yl)-1H-imidazol-5-yl)phenyl)carbamate] | 3.3 | 0.6 | – | –
O=c1cc(-c2c(-n3cnnn3)ccc(Cl)c2F)nc2n1[C@H](c1nc(-c3ccnc(OCC(O)C(F)(F)F)c3F)c[nH]1)CC21CC1 (single isomer, unassigned) [Example 73, (S)-2′-(3-chloro-2-fluoro-6-(1H-tetrazol-1-yl)phenyl)-6′-(4-(3-fluoro-2-((S*)-3,3,3-trifluoro-2-hydroxypropoxy)pyridin-4-yl)-1H-imidazol-2-yl)-6′,7′-dihydro-4′H-spiro[cyclopropane-1,8′-pyrrolo[1,2-a]pyrimidin]-4′-one] | 54.8 | 22.1 | – | –
O=c1cc(-c2c(-n3cnnn3)ccc(Cl)c2F)nc2n1[C@H](c1nc(-c3ccnc(OCC(O)C(F)(F)F)c3F)c[nH]1)CC21CC1 (single isomer, unassigned) [Example 74, (S)-2′-(3-chloro-2-fluoro-6-(1H-tetrazol-1-yl)phenyl)-6′-(4-(3-fluoro-2-((R*)-3,3,3-trifluoro-2-hydroxypropoxy)pyridin-4-yl)-1H-imidazol-2-yl)-6′,7′-dihydro-4′H-spiro[cyclopropane-1,8′-pyrrolo[1,2-a]pyrimidin]-4′-one] | 27.7 | 32.1 | – | –
CC1CC(c2ncc(-c3ccnc(CO)c3F)[nH]2)n2c1nc(-c1c(-n3cnnn3)ccc(Cl)c1F)cc2=O (single isomer, unassigned) [Example 77, (6S*)-2-(3-Chloro-2-fluoro-6-(1H-tetrazol-1-yl)phenyl)-6-(5-(3-fluoro-2-(hydroxymethyl)pyridin-4-yl)-1H-imidazol-2-yl)-8-methyl-7,8-dihydropyrrolo[1,2-a]pyrimidin-4(6H)-one] | 167 | 19.6 | – | –
CC1CC(c2ncc(-c3ccnc(CO)c3F)[nH]2)n2c1nc(-c1c(-n3cnnn3)ccc(Cl)c1F)cc2=O (single isomer, unassigned) [Example 78, (6R*)-2-(3-Chloro-2-fluoro-6-(1H-tetrazol-1-yl)phenyl)-6-(5-(3-fluoro-2-(hydroxymethyl)pyridin-4-yl)-1H-imidazol-2-yl)-8-methyl-7,8-dihydropyrrolo[1,2-a]pyrimidin-4(6H)-one] | 463 | > 100 | – | –
C[C@H]1C[C@@H](c2ncc(-c3ncc(N)nc3F)[nH]2)n2c1nc(-c1c(-n3cnnn3)ccc(Cl)c1F)cc2=O (single isomer, unassigned) [Example 89, (6*S,8S)-6-(5-(5-Amino-3-fluoropyrazin-2-yl)-1H-imidazol-2-yl)-2-(3-chloro-2-fluoro-6-(1H-tetrazol-1-yl)phenyl)-8-methyl-7,8-dihydropyrrolo[1,2-a]pyrimidin-4(6H)-one] | ~45.9 | 5.1 | – | –
C[C@H]1C[C@@H](c2ncc(-c3cc4c(cn3)NC(=O)CC4)[nH]2)n2c1cc(-c1c(-n3cnnn3)ccc(Cl)c1F)cc2=O (single isomer, unassigned) [Example 92, 6-(2-((1S*,3S*)-7-(3-Chloro-2-fluoro-6-(1H-tetrazol-1-yl)phenyl)-1-methyl-5-oxo-1,2,3,5-tetrahydroindolizin-3-yl)-1H-imidazol-5-yl)-3,4-dihydro-1,7-naphthyridin-2(1H)-one] | 15.6 | 8.3 | – | –
C[C@@H]1C[C@H](c2nc(-c3ncc(N)nc3Cl)c[nH]2)n2c1nc(-c1c(-n3cnnn3)ccc(Cl)c1F)cc2=O (single isomer, unassigned) [Example 94, (6*R,8R)-6-(4-(5-Amino-3-chloropyrazin-2-yl)-1H-imidazol-2-yl)-2-(3-chloro-2-fluoro-6-(1H-tetrazol-1-yl)phenyl)-8-methyl-7,8-dihydropyrrolo[1,2-a]pyrimidin-4(6H)-one] | 12 | 1.2 | – | –
C[C@H]1C[C@@H](c2ncc(-c3ccc(N)nc3Cl)[nH]2)n2c1nc(-c1c(-n3cnnn3)ccc(Cl)c1F)cc2=O (single isomer, unassigned) [Example 140] | – | ~575 | 9100 | –
C[C@H]1C[C@@H](c2ncc(-c3ccc(N)nc3Cl)[nH]2)n2c1nc(-c1c(-n3cnnn3)ccc(Cl)c1F)cc2=O (single isomer, unassigned) [Example 142] | 18.3 | 0.2 | – | –
C[C@H]1CC(c2nc(F)c(-c3ccc(N)nc3)[nH]2)n2c1cc(-c1c(-n3cnnn3)ccc(Cl)c1F)cc2=O (stereo in doubt) [Example 40, (1*S,3*S)-3-(5-(6-Aminopyridin-3-yl)-4-fluoro-1H-imidazol-2-yl)-7-(3-chloro-2-fluoro-6-(1H-tetrazol-1-yl)phenyl)-1-methyl-2,3-dihydroindolizin-5(1H)-one] | – | 286 | 6400 | –
Cc1cc(-c2cnc([C@@H]3C[C@@H](C)c4cc(-c5c(-n6cnnn6)ccc(Cl)c5F)cc(=O)n43)[nH]2)ccn1 (stereo in doubt) [Example 41, (1*R,3*S)-7-(3-Chloro-2-fluoro-6-(1H-tetrazol-1-yl)phenyl)-1-methyl-3-(5-(2-methylpyridin-4-yl)-1H-imidazol-2-yl)-2,3-dihydroindolizin-5(1H)-one] | – | 346 | 2200 | –
